These molecules were tested on Monocots (assay: Herbicidal activity, preemergence, monocot weeds (Table II)). Settings: pre-emergence, 336 h, 2 lb./A., about 2 weeks, read-out: % control (percent of plants killed).
Assay type: in vivo
Experimental: (§1) Using the procedure described below, diphenyl ethers were evaluated for control of the following weeds: […]
(§2) barnyardgrass (Echinochloa crusgalli) crabgrass (Digitaria spp.) nutsedge (Cyperus esculentus)
(§3) At 2 and 4 pounds per acre:
(§4) **Bermudagrass (Cynodon dactylon)
(§5) *downy brome (Bromus tectorum) foxtail (Setaria faberii)
(§6) Johnsongrass (Sorghum halepense) […]
(§7) quackgrass (Agropyron repens)
(§8) *ryegrass (Lolium perenne)
(§9) *yellow millet (Panicum miliaceum)
(§10) The following test procedure is employed. Seeds of selected crops and weeds are planted in soil in flats. For preemergence tests, the flats are treated with the test compound immediately after the planting. For postemergence tests, the seeds are allowed to germinate, and after 2 weeks the flats are treated with the test compound. The compound to be evaluated is dissolved in acetone, diluted with water, and sprayed over the flats using a carrier volume equivalent to 50 gallons per acre at the rate of application (pounds per acre, lb/A.) specified in the tables. About 2 weeks after the application of the test compound, the state of growth of the plants is observed and the phytotoxic effect of the compound is evaluated. Table II gives the average percent control achieved by the test compounds in terms of the percent of the plants which are killed by the compounds.

Structure (SMILES)	pest or weed control at 2241.7 g/ha [%]
Nc1cc(Oc2ccc(C(F)(F)F)cc2Cl)ccc1[N+](=O)[O-] [Example 27]	74
CCSC(=O)Nc1cc(Oc2ccc(C(F)(F)F)cc2Cl)ccc1[N+](=O)[O-] [Example 45]	68
CC#CCCOc1cc(Oc2ccc(C(F)(F)F)cc2Cl)ccc1[N+](=O)[O-] [Example 14]	30
CCCOc1cc(Oc2ccc(C(F)(F)F)cc2C#N)ccc1[N+](=O)[O-] [Example 8]	52

Same assay, conditions: pre-emergence, 336 h, 4 lb./A., about 2 weeks, read-out: % control (percent of plants killed)

Structure (SMILES)	pest or weed control at 4483.4 g/ha [%]
CCCOc1cc(Oc2ccc(C(F)(F)F)cc2Cl)ccc1[N+](=O)[O-] [Example 5]	84
Nc1cc(Oc2ccc(C(F)(F)F)cc2Cl)ccc1[N+](=O)[O-] [Example 27]	76
CCSC(=O)Nc1cc(Oc2ccc(C(F)(F)F)cc2Cl)ccc1[N+](=O)[O-] [Example 45]	13
CC#CCCOc1cc(Oc2ccc(C(F)(F)F)cc2Cl)ccc1[N+](=O)[O-] [Example 14]	64
CCCOc1cc(Oc2ccc(C(F)(F)F)cc2C#N)ccc1[N+](=O)[O-] [Example 8]	61

Same assay, conditions: pre-emergence, 336 h, 10 lb./A., about 2 weeks, read-out: % control (percent of plants killed)

Structure (SMILES)	pest or weed control at 11208.5 g/ha [%]
CCCOc1cc(Oc2ccc(C(F)(F)F)cc2Cl)ccc1[N+](=O)[O-] [Example 5]	97
CCCOc1cc(Oc2ccc(C(F)(F)F)cc2C#N)ccc1[N+](=O)[O-] [Example 8]	81

Each molecule was assayed on Dicots (assay: Herbicidal activity, preemergence, dicot weeds (Table II)). Settings: pre-emergence, 336 h, 2 lb./A., about 2 weeks, read-out: % control (percent of plants killed).
Assay type: in vivo
Experimental: as §1
(§11) bindweed (Convolvulus arvensis) curly dock (Remex crispus) velvetleaf (Abutilon theophrasti) wild mustard (Brassica haber)
(§12) At 2 and 4 pounds per acre: […]
(§13) cocklebur (Xanthium pensylvanicum)
(§14) **coffeeweed (Sesbania macrocarpa)
(§15) *curly dock (Rumex crispus)
(§16) *lambsquarters (Chenopodium album) morningglory (Ipomoea purpurea)
(§17) *pigweed (Amaranthus retroflexus)
(§18) **ragweed (Ambrosia artemisiifolia)
(§19) *smartweed (Polygonum pensylvanicum)
(§20) **tomato (Lycopersicon esculentum)
(§21) *wild carrot (Daucus carota)
(§22) *wild mustard (Brassica haber)
as §10

Structure (SMILES)	pest or weed control at 2241.7 g/ha [%]
Nc1cc(Oc2ccc(C(F)(F)F)cc2Cl)ccc1[N+](=O)[O-] [Example 27]	90
CCSC(=O)Nc1cc(Oc2ccc(C(F)(F)F)cc2Cl)ccc1[N+](=O)[O-] [Example 45]	77
CC#CCCOc1cc(Oc2ccc(C(F)(F)F)cc2Cl)ccc1[N+](=O)[O-] [Example 14]	22
CCCOc1cc(Oc2ccc(C(F)(F)F)cc2C#N)ccc1[N+](=O)[O-] [Example 8]	46

Same assay, conditions: pre-emergence, 336 h, 4 lb./A., about 2 weeks, read-out: % control (percent of plants killed)

Structure (SMILES)	pest or weed control at 4483.4 g/ha [%]
CCCOc1cc(Oc2ccc(C(F)(F)F)cc2Cl)ccc1[N+](=O)[O-] [Example 5]	78
Nc1cc(Oc2ccc(C(F)(F)F)cc2Cl)ccc1[N+](=O)[O-] [Example 27]	98
CCSC(=O)Nc1cc(Oc2ccc(C(F)(F)F)cc2Cl)ccc1[N+](=O)[O-] [Example 45]	58
CC#CCCOc1cc(Oc2ccc(C(F)(F)F)cc2Cl)ccc1[N+](=O)[O-] [Example 14]	78
CCCOc1cc(Oc2ccc(C(F)(F)F)cc2C#N)ccc1[N+](=O)[O-] [Example 8]	57

Same assay, conditions: pre-emergence, 336 h, 10 lb./A., about 2 weeks, read-out: % control (percent of plants killed)

Structure (SMILES)	pest or weed control at 11208.5 g/ha [%]
CCCOc1cc(Oc2ccc(C(F)(F)F)cc2Cl)ccc1[N+](=O)[O-] [Example 5]	100
CCCOc1cc(Oc2ccc(C(F)(F)F)cc2C#N)ccc1[N+](=O)[O-] [Example 8]	82

What follows are molecules tested on Monocots (assay: Herbicidal activity, postemergence, monocot weeds (Table II)). Settings: post-emergence, 336 h, 2 lb./A., about 2 weeks, read-out: % control (percent of plants killed).
Assay type: in vivo
Experimental: as §1, §2, §3, §4, §5, §6, §7, §8, §9, §10

Structure (SMILES)	pest or weed control at 2241.7 g/ha [%]
Nc1cc(Oc2ccc(C(F)(F)F)cc2Cl)ccc1[N+](=O)[O-] [Example 27]	99
CCSC(=O)Nc1cc(Oc2ccc(C(F)(F)F)cc2Cl)ccc1[N+](=O)[O-] [Example 45]	53
CC#CCCOc1cc(Oc2ccc(C(F)(F)F)cc2Cl)ccc1[N+](=O)[O-] [Example 14]	91
CCCOc1cc(Oc2ccc(C(F)(F)F)cc2C#N)ccc1[N+](=O)[O-] [Example 8]	35

Same assay, conditions: post-emergence, 336 h, 4 lb./A., about 2 weeks, read-out: % control (percent of plants killed)

Structure (SMILES)	pest or weed control at 4483.4 g/ha [%]
CCCOc1cc(Oc2ccc(C(F)(F)F)cc2Cl)ccc1[N+](=O)[O-] [Example 5]	99
Nc1cc(Oc2ccc(C(F)(F)F)cc2Cl)ccc1[N+](=O)[O-] [Example 27]	82
CCSC(=O)Nc1cc(Oc2ccc(C(F)(F)F)cc2Cl)ccc1[N+](=O)[O-] [Example 45]	17
CC#CCCOc1cc(Oc2ccc(C(F)(F)F)cc2Cl)ccc1[N+](=O)[O-] [Example 14]	61
CCCOc1cc(Oc2ccc(C(F)(F)F)cc2C#N)ccc1[N+](=O)[O-] [Example 8]	48

Same assay, conditions: post-emergence, 336 h, 10 lb./A., about 2 weeks, read-out: % control (percent of plants killed)

Structure (SMILES)	pest or weed control at 11208.5 g/ha [%]
CCCOc1cc(Oc2ccc(C(F)(F)F)cc2Cl)ccc1[N+](=O)[O-] [Example 5]	100
CCCOc1cc(Oc2ccc(C(F)(F)F)cc2C#N)ccc1[N+](=O)[O-] [Example 8]	85

Each molecule was assayed on Dicots (assay: Herbicidal activity, postemergence, dicot weeds (Table II)). Settings: post-emergence, 336 h, 2 lb./A., about 2 weeks, read-out: % control (percent of plants killed).
Assay type: in vivo
Experimental: as §1, §11, §12, §13, §14, §15, §16, §17, §18, §19, §20, §21, §22, §10

Structure (SMILES)	pest or weed control at 2241.7 g/ha [%]
Nc1cc(Oc2ccc(C(F)(F)F)cc2Cl)ccc1[N+](=O)[O-] [Example 27]	100
CCSC(=O)Nc1cc(Oc2ccc(C(F)(F)F)cc2Cl)ccc1[N+](=O)[O-] [Example 45]	78
CC#CCCOc1cc(Oc2ccc(C(F)(F)F)cc2Cl)ccc1[N+](=O)[O-] [Example 14]	100
CCCOc1cc(Oc2ccc(C(F)(F)F)cc2C#N)ccc1[N+](=O)[O-] [Example 8]	66

Same assay, conditions: post-emergence, 336 h, 4 lb./A., about 2 weeks, read-out: % control (percent of plants killed)

Structure (SMILES)	pest or weed control at 4483.4 g/ha [%]
CCCOc1cc(Oc2ccc(C(F)(F)F)cc2Cl)ccc1[N+](=O)[O-] [Example 5]	100
Nc1cc(Oc2ccc(C(F)(F)F)cc2Cl)ccc1[N+](=O)[O-] [Example 27]	100
CCSC(=O)Nc1cc(Oc2ccc(C(F)(F)F)cc2Cl)ccc1[N+](=O)[O-] [Example 45]	88
CC#CCCOc1cc(Oc2ccc(C(F)(F)F)cc2Cl)ccc1[N+](=O)[O-] [Example 14]	94
CCCOc1cc(Oc2ccc(C(F)(F)F)cc2C#N)ccc1[N+](=O)[O-] [Example 8]	80

Same assay, conditions: post-emergence, 336 h, 10 lb./A., about 2 weeks, read-out: % control (percent of plants killed)

Structure (SMILES)	pest or weed control at 11208.5 g/ha [%]
CCCOc1cc(Oc2ccc(C(F)(F)F)cc2Cl)ccc1[N+](=O)[O-] [Example 5]	100
CCCOc1cc(Oc2ccc(C(F)(F)F)cc2C#N)ccc1[N+](=O)[O-] [Example 8]	100
